These results are taken from patent publication EP0011608A1, “Novel allenic amine and acid addition salts thereof, a process for their preparation, pharmaceutical preparations comprising them and the use of these compounds in the preparation of pharmaceutical compositions” (priority 1978, dated 1980).

Some results are limits rather than exact numbers.

Holding throughout (format): in vivo
Test [1] addresses T1, monoamine oxidase enzyme (Mus musculus, UniProt Q8BW75).
T1 construct: from tissue; host or cells: mouse brain slices (hypothalamus, thalamus, midbrain), ex vivo after i.p. dosing
T1 sequence (Q8BW75 1-520): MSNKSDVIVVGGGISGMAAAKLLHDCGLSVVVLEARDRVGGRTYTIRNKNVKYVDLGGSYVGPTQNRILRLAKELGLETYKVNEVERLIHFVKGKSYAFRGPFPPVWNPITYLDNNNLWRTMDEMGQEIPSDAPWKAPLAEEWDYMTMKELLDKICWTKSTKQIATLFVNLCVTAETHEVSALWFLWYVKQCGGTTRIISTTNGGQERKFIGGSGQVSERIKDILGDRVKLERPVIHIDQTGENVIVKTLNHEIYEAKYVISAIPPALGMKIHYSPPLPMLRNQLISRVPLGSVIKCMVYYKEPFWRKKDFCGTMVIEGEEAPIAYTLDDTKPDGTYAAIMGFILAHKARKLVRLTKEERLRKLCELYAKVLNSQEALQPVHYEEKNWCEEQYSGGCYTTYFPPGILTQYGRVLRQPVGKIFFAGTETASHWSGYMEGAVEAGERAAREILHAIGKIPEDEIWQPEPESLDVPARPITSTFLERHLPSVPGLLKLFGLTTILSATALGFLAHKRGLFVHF
As to the kind of experiment: MAO inhibition in mouse brain slices after intraperitoneal injection: deamination of [3H]phenethylamine. The conditions noted are these: for inhibition at 4 mg/kg: dose 4 mg/kg intraperitoneal; for inhibition at 32 mg/kg: dose 32 mg/kg intraperitoneal; for ED50: effective dose for 50 % inhibition; for inhibition at 29 mg/kg: dose 29 mg/kg intraperitoneal. An excerpt:
(§1) It is not possible by experimental means to induce depressions in laboratory animals. In order to evaluate a possible antidepressive effect of new substances biochemical-pharmacological test methods must be resorted to. One such method, which seems to give good indication of the potential antidepressive effects of the test substances, is a test for monoamine oxidase enzyme inhibiting activity. The deamination of [^3H]phenethylamine, [^3H]tyramine, and [^14C]-5-hydroxytryptamine by brain slices was determined according to the following method.
(§2) Slices (100 mg) of the central part of the mouse brain including hypothalamus, thalamus, and midbrain were incubated for 5 min with 1 x 10^-7 M of the labeled substrate in 2.0 ml of Krebs-Henseleit's buffer, pH 7.4, containing […] of glucose, The slices were then homogenized in an all-glass homogenizer with 1.0 ml of 1 N HCl containing carrier amounts ([…]) of the nonlabeled amine and its deaminated acid product. An aliquot of 1.1 ml of a brain homogenate in 10 vol of 1 N HCl containing the substrate and product carriers was added to 0.5 ml of the incubation medium. The brain homogenate was added in order to facilitate the extraction of tyramine and 5-HT. The acid and neutral products were extracted into 6.0 ml of ethyl acetate by vigorous shaking for 10 s. After centrifugation, 4.0 ml of the organic phase was taken for determination of radicactivity, The remaining ethyl acetate was removed; the water phase was made alkaline with solid sodium carbonate and 1.0 ml of 0.5 M borate buffer, pH 10. The amine was then extracted into 6.0 ml of ethyl acetate and 4.0 ml of the organic phase was taken for the assay. The deamination of [^3H]tyramine and [^14C]-5-HT was determined simultaneously by utilizing the double-labeling technique. (S.B. Ross, A.L. Renyi, and S.-O. Ögren, Eur. J. Pharmacol., 17, 107 (1972)).
[…] The inhibition was expressed in percent and calculated on the total formation of acid and neutral products formed in the brain slices of animals treated with the test compounds or with saline.

Test [2] deals with monoamine oxidase enzyme. Kind of test: MAO inhibition in mouse brain slices after intraperitoneal injection: deamination of [3H]tyramine. To be noted: for ED50: deamination of tyramine, effective dose for 50 % inhibition, 1 h after adm.; for inhibition of the MAO activity against tyramine (in words): mouse, in vivo.
Description: as §1, §2
(§3) Inhibition of the MAO activity in the brain slices was determined 1 h after the intraperitoneal injection of the test compound. The inhibition was expressed in percent and calculated on the total formation of acid and neutral products formed in the brain slices of animals treated with the test compounds or with saline.

In test [3] the target is T2, monoamine oxidase enzyme (Mus musculus, UniProt Q64133).
T2 construct: from tissue; host or cells: mouse brain slices (hypothalamus, thalamus, midbrain), ex vivo after i.p. dosing
T2 sequence (Q64133 1-526): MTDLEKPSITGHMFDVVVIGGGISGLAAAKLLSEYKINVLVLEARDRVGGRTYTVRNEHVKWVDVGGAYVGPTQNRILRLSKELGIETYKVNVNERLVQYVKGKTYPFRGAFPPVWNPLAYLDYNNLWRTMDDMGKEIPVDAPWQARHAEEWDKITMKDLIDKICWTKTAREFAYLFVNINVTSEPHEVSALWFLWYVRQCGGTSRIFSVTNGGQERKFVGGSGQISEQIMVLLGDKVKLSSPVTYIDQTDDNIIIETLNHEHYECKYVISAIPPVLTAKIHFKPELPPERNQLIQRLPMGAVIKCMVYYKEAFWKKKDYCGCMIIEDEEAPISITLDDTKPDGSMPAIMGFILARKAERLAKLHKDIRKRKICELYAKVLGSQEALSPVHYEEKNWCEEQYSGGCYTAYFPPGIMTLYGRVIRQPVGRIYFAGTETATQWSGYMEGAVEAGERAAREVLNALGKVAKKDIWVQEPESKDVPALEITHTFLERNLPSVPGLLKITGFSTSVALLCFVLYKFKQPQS
Kind of test: MAO inhibition in mouse brain slices after intraperitoneal injection: deamination of [14C]-5-hydroxytryptamine. To be noted: for inhibition of the MAO activity against 5-hydroxytryptamine (in words): in vivo; for ED50: effective dose for 50 % inhibition.
Description: as §1, §2, §3

[4] abbreviates: mouse, ip, deamination of phenethylamine, 1 h after adm.
The mark [5] stands for this setting: mouse, ip, deamination of phenethylamine, 24 h after adm.
Setting [6] is: mouse, ip, deamination of 5-hydroxytryptamine, 1 h after adm.
Setting [7] is: comparison of ACS 104 with ACS 64.

The compound `C=C=CCN(C)Cc1ccccc1.Cl` [ACS 64, N-2,3-butadienyl--N-methylbenzylamine hydrochloride, reference compound] gave an inhibition at 4 mg/kg in test [1] (setting [4]) of 31 ± 7%. Besides, the inhibition at 32 mg/kg in test [1] (setting [4]) stood at 86 ± 3%; in test [1] (setting [5]), 70 ± 1%; in test [3] (mouse, ip, deamination of 5-hydroxytryptamine, dose 32 mg/kg intraperitoneal, 1 h after adm.), 16 ± 2%. Besides, the ED50 was 50 µmol/kg in test [1] (setting [4]), more than 150 µmol/kg in test [2] and more than 150 µmol/kg in test [3] (setting [6]). Moreover, in test [2], the “inhibition of the MAO activity against tyramine (in words)” value is “only weak inhibitors”. Further, in test [3] (mouse), the “inhibition of the MAO activity against 5-hydroxytryptamine (in words)” value was “only weak inhibitors”.

Regarding `C=C=C(CN)Cc1ccccc1.Cl` [ACS 104, 2-benzyl-2,3-butadienamine hydrochloride], the “potency relative to the prior art compound, inhibition of the MAO activity against phenethylamine” value in test [1] (comparison of ED50-values of ACS 104 and ACS 64) was “about three times as potent as the prior art compound”. Testing at 1 mg/kg in test [1] (mouse, ip, deamination of phenethylamine, dose 1 mg/kg intraperitoneal, 1 h after adm.) gave an inhibition of 19 ± 3%. For the same compound, testing at 4 mg/kg in test [1] (setting [4]) gave an inhibition of 67 ± 2%. Also, the inhibition at 29 mg/kg in test [1] (setting [4]) amounted to 92 ± 1%; in test [1] (setting [5]), 39 ± 2%; in test [3] (mouse, ip, deamination of 5-hydroxytryptamine, dose 29 mg/kg intraperitoneal, 1 h after adm.), 48 ± 2%. For the same compound, the ED50 was 16 µmol/kg in test [1] (setting [4]), less than 150 µmol/kg in test [2] and approximately 150 µmol/kg in test [3] (setting [6]). Also, in test [2] (setting [7]), the “potency relative to the prior art compound, MAO activity against tyramine” value is “somewhat, more potent than the prior art compound”. Further, the “inhibition of the MAO activity against tyramine (in words)” value in test [2] was “only weak inhibitors”. In addition, the “potency relative to the prior art compound, MAO activity against 5-hydroxytryptamine” value in test [3] (setting [7]) is “somewhat, more potent than the prior art compound”. Besides, the “inhibition of the MAO activity against 5-hydroxytryptamine (in words)” value in test [3] (mouse) is recorded as “only weak inhibitors”.

The inhibition is the change of the read-out against control, counted positive when it falls. Read a low inhibition as a weak effect. For orientation: ED50 means the dose at which the effect has come halfway, by size or by number of responders. Lower therefore signals greater potency.
